Source: patent publication US9433663B2, “Mobilization of hematopoietic stem cells” (Children's Hospital Medical Center, priority 2008, dated 2016)

Key:
[1] = test system: PIP2 induced F-actin assembly; conditions: PIP2 induced F-actin assembly in xenopus egg extracts; read-out: IC50 (dose required to inhibit the maximum polymerization rate by 50%); cited from earlier work
[2] = test system: donor cell engraftment; assay: Example 9 mobilization as preparative regimen for HSC transplantation; format: in vivo, mice
Procedure: If the microenvironmental niches are vacated after CASIN exposure, donor HSCs might engraft better in hosts treated with a mobilizing agent such as CASIN compared with non-mobilized controls. To test this, bone marrow transplantation is performed on recipient mice which are pre-conditioned with CASIN. […] Additionally, AMD3100, G-CSF, and control medium are used in parallel with CASIN as controls.
Briefly, mice are treated with CASIN, and 4×10^7 donor bone marrow cells from congenic mouse strain are transplanted 48 h later. Donor cell engraftment is assayed at 3 months using the congenic markers by flow cytometry.
Additionally, multiple cycles of mobilization with CASIN may increase the number of available niches. Therefore, this study investigates whether repeated cycles of CASIN mobilization, each followed by donor cell transplantation, could result in increased engraftment. Briefly, mice receive one weekly injection of CASIN on 3 consecutive weeks and 4×10^7 donor marrow cells are transplanted 48 hours after each mobilization. Control animals also received 3 weekly infusions of 4×10^7 donor marrow cells but no CASIN. And the donor engraftment is assayed at 3 months after transplantation as well.

[3] = test system: LDBM cells; assay: CFU-adhesion assay of LDBM cells on fibronectin; format: cell-based, murine
Description: (§1) To shed light on potential roles of CASIN in HSPC mobilization, the effects of CASIN on Cdc42-related cellular functions was studied, including adhesion, migration, and F-actin polymerization of progenitor cells in 32D myeloid progenitors. […] SDF-1α stimulation causes a reorganization of F-actin into a cortical ring around the cells. […] Thirdly, to gain further insight into cellular specificity and efficacy of CASIN, and also to rule out possible toxic effects by CASIN, Cdc42-involved BM progenitor cell functions were examined, including proliferation, adhesion, migration, and F-actin polymerization, in Cdc42^+/+ cells in parallel with Cdc42^−/− cells. In line with additional studies in a Cdc42 conditional knockout mouse model as described herein, Cdc42^−/− LDBM cells have increased CFU-forming progenitors compared to those of Cdc42^+/+.
Murine LDBM cells from Cdc42^+/+ as well as Cdc42^−/− mice were used for CFU-adhesion/migration experiments as described previously. Briefly, for adhesion experiment, in the presence or absence of prior CASIN treatment at doses of 5 and 10 μM, 10^5 cells were plated onto each well of 48-well plates pre-coated with fibronectin fragment CH296, which contains integrin α4β1-binding site. Adherent cells then were harvested by cells dissociation buffer (Gibco, Carlsbad, Calif.), and further plated in CFU assay. […]

[4] = test system: LDBM cells; assay: proliferation (CFU) and toxicity in Cdc42+/+ and Cdc42−/− LDBM progenitors; format: cell-based, murine
Description: as §1

[5] = test system: human CD34^+ umbilical cord blood cells; assay: migration of human CD34+ HCB cells; format: cell-based; conditions: 5 μM
Procedure: FIG. 4C. relative migration of human CD34^+ cord blood cells in the presence of CASIN at dose of 5 μM in comparison to that of control.
To begin to study potential utility of CASIN in human hematopoietic stem cell mobilization, a series of cellular assays were carried out to determine the effects on human CD34^+ umbilical cord blood cells (HCBs). […] The effects of CASIN on human hematopoietic cell mobilization was therefore tested using a well established preclinical in vivo model (NOD/SCID-Hcb) of human hematopoietic function, where fresh CD34^+ hCB cells were transplanted into sub-lethally irradiated NOD/SCIDs by intrafemoral injection, and repopulated and maintained human hematopoietic reconstitution in the bone marrow of NOD/SCID recipient mice (FIG. 9b, FIG. 11) (Larochelle, A. et al. Nat Med 2, 1329-1337 (1996); Bhatia, M., et al. Proc Natl Acad Sci USA 94, 5320-5325 (1997)). Intravenous injections of CASIN were applied when human cells were well engrafted in the NOD/SCID recipients.

[6] = target: Cdc42 (Mus musculus, UniProt P60766); assay: Cdc42 activity (effector pulldown) in primary murine fibroblasts; format: cell-based; set-up: endogenous in cells; host or cells: murine low density bone marrow (LDBM) cells; conditions: Cdc42GAP^−/− primary murine fibroblasts
Chain of Cdc42 (P60766 whole entry): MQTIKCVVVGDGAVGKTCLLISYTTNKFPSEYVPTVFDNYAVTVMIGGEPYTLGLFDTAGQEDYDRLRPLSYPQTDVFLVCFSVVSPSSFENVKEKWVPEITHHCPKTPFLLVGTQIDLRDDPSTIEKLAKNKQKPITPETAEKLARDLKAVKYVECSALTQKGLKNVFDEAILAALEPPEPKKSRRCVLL
Description: To investigate the Cdc42-dependent cytoskeleton rearrangement, Swiss 3T3 fibroblasts were used since it was abundantly elaborated in Swiss 3T3 fibroblats that bradykinin induces actin filopodia formation through activating Cdc42, whereas PDGF activates Rac1 and induces Rac-mediated membrane lamellipoidia, and LPA responsible for RhoA activation, eliciting RhoA-medicated formation of actin stress fibers and focal adhesion assembly (Ridley, A. J. et al. Cell 70, 401-410 (1992); Ridley, A. J. et al. Cell 70, 389-399 (1992); Kozma, R. et al. Mol Cell Biol 15, 1942-1952 (1995)).
To analyze the effects of CASIN on the formation of active GTP-bound Cdc42, RhoA, and Rac1, effector pulldown assays were carried out as described previously. Cdc42GAP^−/− MEF, LDBM, CD34^+ hCB cells were treated with CASIN at doses of 5-20 μM in parallel with vehicle control for 2 hrs after overnight starvation, and stimulated with cytokines subsequently. And then cells were lysed in a buffer containing 20 mM Tris-HCL (pH 7.6), 100 mM NaCl, 1% Triton X-100, 10 mM MgCl2, 2 mM NaF, and Protease inhibitor cocktail (Roche Diagnostics). Lysates were incubated with GST-P21-binding domain of PAK1 for RAC1-GTP and Cdc42-GTP, and GST-RBD domain of Rhotekin for RhoA-GTP respectively. […]

[7] = test system: 32D myeloid progenitors; assay: FACS analysis of F-actin reorganization in 32D progenitors; format: cell-based, murine; conditions: dose-dependent pattern
Description: as §1

## OCCNC1CCCc2c1[nH]c1ccc(-c3ccccc3)cc21 (stereo not drawn) [CASIN]
[1]
  IC50: 2000 nM
[2]; 3 weekly cycles
  engraftment with 3-cycle administration and subsequent transplantation: further improved compared to one cycle
[2]; compared to the non-mobilization control
  engraftment of donor cells in pre-conditioned recipients: significantly increased engraftment of donor cells
[3]; Cdc42^+/+ LDBM cells
  adhesion of colony-forming progenitors to fibronectin surface: dose-dependently inhibited
[3]; Cdc42^−/− LDBM cells
  adhesion activity of Cdc42^−/− cells: did not have additive effects
[4]; Cdc42^+/+ LDBM cells, FIG. 2d
  proliferation of WT progenitors: did not affect
[4]; Cdc42^−/− LDBM cells, FIG. 2d
  side effect on the KO cells: nor showed any side effect
[4]; as compared with the Cdc42 conditional knockout mouse
  myeloproliferative disorders (MPDs) or hyperactivation: did not cause
[4]; dose range of 5-10 μM
  toxic effect in WT or Cdc42 deficient HSPCs: without a detectable toxic effect
[5]
  migration activity of human progenitors: significantly dampened
[6]
  Cdc42 activity: dose-dependently inhibited
[7]
  F-actin reorganization stimulated by SDF1α: significantly dampened
